17 compounds from patent publication US10829481B2, “Benzimidazole derivatives as modulators of ROR-gamma” (Vitae Pharmaceuticals, LLC, priority 2016, dated 2020) can be followed below.

Assay [1] addresses recombinant RORγ Ligand Binding Domain (LBD) protein (Homo sapiens (Human), UniProt P51449). In words: Radio-Ligand RORγ Binding Assay (Assay 1). The following applies: competition with 25-hydroxy [26,27-3H]-cholesterol, SPA. An outline of the steps:
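Scintillation proximity competition against 25-hydroxy [26,27-^3H]-cholesterol (8.6 nM solution) for 6×His-GST-tagged RORγ LBD (24 nM solution) in HEPES pH 7.4 with CHAPS, β-octylglucopyranoside and DTT; semi-log compound dilutions, ~1 h total at rt with poly-Lys YSi beads. IC50 from four-parameter fit; Ki derived from [RL] and radioligand KD.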

The target in assay [2] is full-length RORγt in Jurkat cells (Homo sapiens (Human), UniProt P51449). Briefly: RORγt 5×RORE Assay in Jurkat Cells (Assay 2). Type of assay: cell-based. The following applies: 5×RORE Nanoluc luciferase reporter.
Sequence of full-length RORγt in Jurkat cells (P51449 other isoform, or with tags, fused parts or gaps): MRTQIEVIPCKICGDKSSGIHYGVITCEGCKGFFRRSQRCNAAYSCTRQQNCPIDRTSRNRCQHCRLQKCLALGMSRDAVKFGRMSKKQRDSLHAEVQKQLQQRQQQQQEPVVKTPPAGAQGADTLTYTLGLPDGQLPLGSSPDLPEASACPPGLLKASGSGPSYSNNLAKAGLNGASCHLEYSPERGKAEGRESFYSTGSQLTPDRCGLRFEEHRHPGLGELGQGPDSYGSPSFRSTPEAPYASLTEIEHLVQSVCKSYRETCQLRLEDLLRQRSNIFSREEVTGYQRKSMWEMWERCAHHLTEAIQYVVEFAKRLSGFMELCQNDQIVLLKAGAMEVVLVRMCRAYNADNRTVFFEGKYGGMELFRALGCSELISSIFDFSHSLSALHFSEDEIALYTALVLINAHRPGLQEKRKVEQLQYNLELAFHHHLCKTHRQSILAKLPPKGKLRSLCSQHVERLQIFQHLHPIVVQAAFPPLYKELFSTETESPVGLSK

SMILES strings stand for the structures. pIC50, pKi: −log10 of the molar value.

Sequence of recombinant RORγ Ligand Binding Domain (LBD) protein (P51449 269-508): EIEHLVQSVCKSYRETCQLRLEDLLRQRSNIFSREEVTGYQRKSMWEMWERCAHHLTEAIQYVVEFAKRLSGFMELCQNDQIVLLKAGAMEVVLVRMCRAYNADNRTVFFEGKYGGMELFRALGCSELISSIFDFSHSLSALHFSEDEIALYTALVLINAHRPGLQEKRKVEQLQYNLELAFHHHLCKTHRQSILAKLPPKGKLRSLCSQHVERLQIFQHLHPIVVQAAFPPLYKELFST

One may read the pKi as the negative decadic logarithm of the Ki, by convention in mol/L. For orientation: pIC50 means the IC50 on a negative log10 scale, so that one unit is a factor of ten. As for `CCS(=O)(=O)c1ccc(CNC(=O)c2ccc3c(c2)nc(C(F)(F)F)n3Cc2cc(C#N)ccc2F)cc1` [I-94, 1-(5-cyano-2-fluorobenzyl)-N-(4-(ethylsulfonyl)benzyl)-2-(trifluoromethyl)-1H-benzo[d]imidazole-5-carboxamide], the pKi in assay [1] was > 7.00. For the same compound, the pIC50 in assay [2] was 6.00 to 7.00.
The matching figures for `CNS(=O)(=O)c1ccc(CC(=O)Nc2ccc3c(c2)nc(C(F)(F)F)n3Cc2cccc3c2OC(F)(F)O3)cc1` [I-5, N-(1-((2,2-difluorobenzo[d][1,3]dioxol-4-yl)methyl)-2-(trifluoromethyl)-1H-benzo[d]imidazol-5-yl)-2-(4-(N-methylsulfamoyl)phenyl)acetamide]: > 7.00 and > 7.00.
Regarding `CS(=O)(=O)c1ccc(CC(=O)Nc2ccc3c(c2)nc(C(F)(F)F)n3Cc2cccc3c2OC(F)(F)O3)cc1` [I-2, N-(1-((2,2-difluorobenzo[d][1,3]dioxol-4-yl)methyl)-2-(trifluoromethyl)-1H-benzo[d]imidazol-5-yl)-2-(4-(methylsulfonyl)phenyl)acetamide], the pKi in assay [1] is > 7.00. The pIC50 in assay [2] was > 7.00.
On to `CCS(=O)(=O)c1ccc(CNC(=O)c2ccc3c(c2)nc([C@H]2CCCO2)n3Cc2cccc3c2OC(F)(F)O3)cc1` [I-39.1, (R)-1-((2,2-difluorobenzo[d][1,3]dioxol-4-yl)methyl)-N-(4-(ethylsulfonyl)benzyl)-2-(tetrahydrofuran-2-yl)-1H-benzo[d]imidazole-5-carboxamide], for which the pKi in assay [1] was > 7.00. Besides, in assay [2], the pIC50 was > 7.00.
For `CS(=O)(=O)c1ccc([C@@H](CO)NC(=O)c2ccc3c(c2)nc(C(F)(F)F)n3Cc2cccc3c2OC(F)(F)O3)cc1` [I-20.2, (S)-1-((2,2-difluorobenzo[d][1,3]dioxol-4-yl)methyl)-N-(2-hydroxy-1-(4-(methylsulfonyl)phenyl)ethyl)-2-(trifluoromethyl)-1H-benzo[d]imidazole-5-carboxamide], in assay [1], the pKi is > 7.00. The pIC50 in assay [2] is > 7.00.
Consider `CCS(=O)(=O)c1ccc(CNC(=O)c2ccc3c(c2)nc(C(F)(F)F)n3Cc2cccc(OC)c2F)cc1` [I-136, N-(4-(ethylsulfonyl)benzyl)-1-(2-fluoro-3-methoxybenzyl)-2-(trifluoromethyl)-1H-benzo[d]imidazole-5-carboxamide], for which the pKi in assay [1] is > 7.00. Moreover, the pIC50 in assay [2] is > 7.00.
As to `CS(=O)(=O)N1CCC(CNC(=O)c2ccc3c(c2)nc(C2(F)CC2)n3Cc2cccc3c2OC(F)(F)O3)CC1` [I-73, 1-((2,2-difluorobenzo[d][1,3]dioxol-4-yl)methyl)-2-(1-fluorocyclopropyl)-N-((1-(methylsulfonyl)piperidin-4-yl)methyl)-1H-benzo[d]imidazole-5-carboxamide], the pKi in assay [1] was > 7.00. Moreover, the negative logarithm of the IC50 (pIC50) in assay [2] is > 7.00.
For the compound `CCS(=O)(=O)c1ccc(CNC(=O)c2ccc3c(c2)nc(C2CC2)n3Cc2cc(OC)cc(OC(F)(F)F)c2)cc1` [I-115, 2-cyclopropyl-N-(4-(ethylsulfonyl)benzyl)-1-(3-methoxy-5-(trifluoromethoxy)benzyl)-1H-benzo[d]imidazole-5-carboxamide], the pKi in assay [1] is > 7.00. The negative logarithm of the IC50 (pIC50) in assay [2] was > 7.00.
For the compound `O=C(NCc1ccc(S(=O)(=O)CCO)cc1)c1ccc2c(c1)nc(C(F)(F)F)n2Cc1cccc2c1OC(F)(F)O2` [I-45, 1-((2,2-difluorobenzo[d][1,3]dioxol-4-yl)methyl)-N-(4-((2-hydroxyethyl)sulfonyl)benzyl)-2-(trifluoromethyl)-1H-benzo[d]imidazole-5-carboxamide], the pKi in assay [1] is > 7.00. The pIC50 in assay [2] was > 7.00.
Take `CCS(=O)(=O)c1ccc(CNC(=O)c2ccc3c(c2)nc(C2CC2)n3[C@H](C)c2cccc3c2OC(F)(F)O3)cc1` [I-149, (R)-2-cyclopropyl-1-(1-(2,2-difluorobenzo[d][1,3]dioxol-4-yl)ethyl)-N-(4-(ethylsulfonyl)benzyl)-1H-benzo[d]imidazole-5-carboxamide]: in assay [1], the pKi was > 7.00. Further, the pIC50 in assay [2] was > 7.00.
Turning to `CCS(=O)(=O)c1ccc(CNC(=O)c2ccc3c(c2)nc(C2CCC2)n3Cc2cccc3c2OC(F)(F)O3)cc1` [I-36, 2-cyclobutyl-1-((2,2-difluorobenzo[d][1,3]dioxol-4-yl)methyl)-N-(4-(ethylsulfonyl)benzyl)-1H-benzo[d]imidazole-5-carboxamide], the pKi in assay [1] is > 7.00. Further, the pIC50 in assay [2] is > 7.00.
As to `CCS(=O)(=O)c1ccc(CNC(=O)c2ccc3c(c2)nc(C(C)(C)OC)n3Cc2cccc3c2OC(F)(F)O3)cc1` [I-54, 1-((2,2-difluorobenzo[d][1,3]dioxol-4-yl)methyl)-N-(4-(ethylsulfonyl)benzyl)-2-(2-methoxypropan-2-yl)-1H-benzo[d]imidazole-5-carboxamide], in assay [1], the pKi was > 7.00. The pIC50 in assay [2] was > 7.00.
For `CCS(=O)(=O)c1ccc(CNC(=O)c2ccc3c(c2)nc(COC)n3Cc2cccc3c2OC(F)(F)O3)cc1` [I-28, 1-((2,2-difluorobenzo[d][1,3]dioxol-4-yl)methyl)-N-(4-(ethylsulfonyl)benzyl)-2-(methoxymethyl)-1H-benzo[d]imidazole-5-carboxamide], the pKi in assay [1] was > 7.00. Moreover, the pIC50 in assay [2] is > 7.00.
Consider `CCS(=O)(=O)c1ccc([C@H](COC)NC(=O)c2ccc3c(c2)nc(C2(F)CC2)n3Cc2cccc3c2OC(F)(F)O3)cc1` [I-61, (R)-1-((2,2-difluorobenzo[d][1,3]dioxol-4-yl)methyl)-N-(1-(4-(ethylsulfonyl)phenyl)-2-methoxyethyl)-2-(1-fluorocyclopropyl)-1H-benzo[d]imidazole-5-carboxamide], for which, in assay [1], the pKi is > 7.00. Also, in assay [2], the pIC50 is > 7.00.
On to `CCS(=O)(=O)c1ccc([C@@H](O)C(=O)Nc2ccc3c(c2)nc(C(F)(F)F)n3Cc2cccc3c2OC(F)(F)O3)cc1` (mixture of isomers) [I-170.2, (S)-N-(1-((2,2-difluorobenzo[d][1,3]dioxol-4-yl)methyl)-2-(trifluoromethyl)-1H-benzo[d]imidazol-5-yl)-2-(4-(ethylsulfonyl)phenyl)-2-hydroxyacetamide and (R)-N-(1-((2,2-difluorobenzo[d][1,3]dioxol-4-yl)methyl)-2-(trifluoromethyl)-1H-benzo[d]imidazol-5-yl)-2-(4-(ethylsulfonyl)phenyl)-2-hydroxyacetamide], for which the pKi in assay [1] is > 7.00. Also, the pIC50 in assay [2] is > 7.00.
With `CCS(=O)(=O)c1ccc(CNC(=O)c2ccc3c(c2)nc(OC)n3Cc2cccc3c2OC(F)(F)O3)cc1` [I-55, 1-((2,2-difluorobenzo[d][1,3]dioxol-4-yl)methyl)-N-(4-(ethylsulfonyl)benzyl)-2-methoxy-1H-benzo[d]imidazole-5-carboxamide], in assay [1], the pKi was > 7.00. The pIC50 in assay [2] is 6.00 to 7.00.
With `CCS(=O)(=O)c1ccc([C@H](CO)NC(=O)c2ccc3c(c2)nc(C(F)(F)F)n3Cc2cccc3c2OC(F)(F)O3)cc1` [I-11.1, (R)-1-((2,2-difluorobenzo[d][1,3]dioxol-4-yl)methyl)-N-(1-(4-(ethylsulfonyl)phenyl)-2-hydroxyethyl)-2-(trifluoromethyl)-1H-benzo[d]imidazole-5-carboxamide], the pKi in assay [1] is > 7.00. In assay [2], the pIC50 was > 7.00.
